Drawing on PubChem BioAssay (NCI), this text covers GI50 and TGI for 9 molecules.

SMILES strings stand for the structures.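 A five-concentration, 48-hour dose response in 96-well plates underlies each endpoint, interpolated linearly between surrounding concentrations. The concentration for 50% growth inhibition is given as GI50. TGI is the concentration that stops growth completely.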

Holding throughout (test): NCI-60 cell line screen, 48 h
The subject of assay [1] is A549 NSCLC.
The test system of assay [2] is EKVX NSCLC.
The subject of assay [3] is HL-60(TB) leukemia.
Assay [4] concerns HOP-62 NSCLC.
Assay [5] concerns NCI-H460 lung.
Assay [6] has as its system NCI-H522 lung.
Assay [7] concerns RXF 393 renal.
For assay [8], the system named is SNB-75 CNS.
Assay [9] relates to TK-10 renal.
For assay [10], the system named is UO-31 renal.

`C[C@H]1CCC/C=C/C2CC(OC(=O)CN(C)C)CC2C(OC(=O)CN(C)C)/C=C/C(=O)O1` (some centres undefined): the GI50 was 0.68 µM in assay [1]; 0.558 µM in assay [2]; 0.682 µM in assay [3]; 2.51 µM in assay [4]; 1.09 µM in assay [5]; 0.658 µM in assay [6]. Also, the GI50 in [7] is 0.0972 µM; in assay [8], 0.0567 µM; in [9] it was 0.318 µM; in assay [10], 0.142 µM. Moreover, the TGI in assay [1] is > 100 µM; in [2], > 87.8 µM; in assay [3] it was 7.47 µM; in assay [4], 23.2 µM; in assay [5], 31.2 µM; in [6], 2.83 µM. In addition, the values for the TGI in assay [7], in [9] and in assay [10] were 0.314 µM, 17.9 µM and 0.765 µM, respectively.
As to `CC(Oc1cc2oc(=O)cc(-c3ccccc3)c2cc1Cl)C(=O)O` (centres undefined), the TGI in assay [1], in assay [2], in assay [3], in assay [4], in assay [5] and in assay [6] was > 100 µM each time. For the same molecule, the TGI in [7], in [8], in [9] and in [10] was > 100 µM each time.
As to `C[C@@H]1CC[C@H]2[C@@H](C)C(O)O[C@@H]3O[C@]4(C)CC[C@@H]1[C@]32OO4` (some centres undefined), the GI50 is 1.74 µM in assay [1]; 0.65 µM in [2]; 0.176 µM in [3]; 2.99 µM in [4]; 1.33 µM in assay [5]; 0.329 µM in assay [6]. Further, the GI50 in assay [7] was 1.15 µM; in assay [8], 2.54 µM; in assay [9], 0.854 µM; in assay [10], 0.375 µM. The TGI in assay [1] is 13.5 µM; in assay [2], 17.2 µM; in [3], 0.517 µM; in assay [4], 18.7 µM; in assay [5] it was 15 µM; in assay [6], 3.29 µM. For the same molecule, the TGI in assay [7] was determined as 17.8 µM; in [8] it was 15.6 µM; in assay [9] it was 9.64 µM; in assay [10], 2.31 µM.
Consider `C#CCN(N=O)C(=O)NC(CCCCNC(=O)OCc1ccccc1)C(=O)OCc1ccccc1` (centres undefined), for which the TGI in assay [1] was > 100 µM; in [2], 55.3 µM; in assay [3], 37.6 µM; in [4], > 100 µM; in assay [5], > 100 µM; in [6] it was 31.7 µM. The TGI in [7] was > 100 µM; in assay [8], 97.4 µM; in assay [9], 86 µM; in assay [10], 87 µM.
With `COC(=O)C(C(=O)C(=O)Nc1ccc(C)cc1)c1nc2ccc([N+](=O)[O-])cc2[nH]c1=O` (centres undefined), the TGI in assay [1], in assay [2], in [3], in assay [4], in assay [5] and in assay [6] was > 100 µM throughout. Moreover, the TGI in assay [7], in assay [8], in assay [9] and in [10] was > 100 µM each time.
For `O=C(O)C1C2C=CC(O2)C1C(=O)NCc1cccnc1` (centres undefined), the TGI in assay [1], in assay [2], in [3], in assay [4], in [5] and in assay [6] was > 100 µM in each case. For the same molecule, the TGI in [7], in assay [8], in assay [9] and in assay [10] was > 100 µM each time.
Turning to `C[C@@H](Nc1nc(N[C@H](C)C(F)(F)F)nc(-c2cccc(Cl)n2)n1)C(F)(F)F`, the GI50 was 50.3 µM in assay [1]; 70.7 µM in [2]; > 100 µM in assay [3]; 27.5 µM in [4]; 36.1 µM in assay [5]; 30 µM in assay [6]. Also, the GI50 is 23.2 µM in assay [7], 15.8 µM in [8], 39.9 µM in assay [9] and 51.3 µM in assay [10]. Besides, the TGI in assay [1], in assay [2], in assay [3], in assay [4], in [5] and in [6] was > 100 µM in each case. Also, the TGI in [7] was 94.7 µM; in [8], 44.3 µM; in assay [9], > 100 µM; in assay [10], > 100 µM.
For the molecule `CCc1cccc(C(C)C)c1NC(=O)CC1Sc2ccccc2NC1=O` (centres undefined), the TGI in assay [1] is > 100 µM; in assay [2], > 100 µM; in assay [3], 50 µM; in assay [4] it was > 100 µM; in [5] it was > 100 µM; in [6], 97.6 µM. Also, the TGI in assay [7] is 96.3 µM; in assay [8], > 100 µM; in assay [9], > 100 µM; in [10], > 100 µM.
Consider `COc1ccccc1-n1cnc(N)c1C(=O)c1cc(OC)c(OC)c(OC)c1`, for which the GI50 in [1] was 4.42 µM; in [2] it was 7.55 µM; in assay [3] it was 3.12 µM; in assay [4], 37.4 µM; in [5], 3.47 µM; in assay [6], 1.94 µM. Besides, the GI50 in [7] is 2.19 µM; in assay [8], 2.3 µM; in [9], 5.21 µM; in assay [10] it was 4.21 µM. For the same molecule, the TGI in assay [1], in [2], in assay [3], in assay [4], in assay [5] and in assay [6] was > 100 µM each time. For the same molecule, the TGI in assay [7] is 64.5 µM; in [8] it was 9.3 µM; in assay [9] it was > 100 µM; in assay [10], > 100 µM.
